Assay results published in patent publication US20170283408A1, “BENZO-HETEROCYCLIC COMPOUNDS AND THEIR APPLICATIONS” (priority 2014, published 2017).

Experiments:
[1] = tested on: PD-L1; assay: PD-L1 level in LPS-primed monocyte model (flow cytometry); type: cell-based, human; conditions: for expression level of PD-L1 in LPS-primed monocytes, of that of the control: compound at 10 μM, LPS 100 ng/mL, relative to control
Text: (§1) White blood cells of test subjects including healthy volunteers recruited from the Taiwan Blood Service Foundation (Taipei, Taiwan) and septic patients were obtained with written informed consents. Human monocytes were then isolated in accordance with procedures described previously (Chen I H et al., Cancer Immunol Immunother (2010) 59, 323-334). Briefly, peripheral blood mononuclear cells (PBMCs) were isolated using Ficoll-Paque Plus (GE Healthcare) gradient centrifugation. The monocytes were further purified by conducting CD14 selection using CD14 MACS microbeads (Miltenyi Biotec). The purity of monocytes confirmed using flow cytometry analysis was approximately 90%. Monocytes were incubated with endotoxin LPS (100 ng/ml) for 72 hours. At the indicated time point, the cells were harvested and the PD-L1 and HLA-DR molecules were analyzed using flow cytometry. Murine B16F10 cell lines maintained in Dulbecco's modified Eagle's medium (DMEM), 10% heat-inactivated fetal calf serum, 2 mM L-glutamine, penicillin (100 U/ml), and streptomycin (100 μg/ml) at 37 C in a 5% CO2 humidified atmosphere.
(§2) To analyze the surface phenotype of the monocytes, the cells were incubated for 30 minutes on ice in the dark with the following mAbs diluted in phosphate-buffered saline (PBS) containing 1% BSA: PD-L1-FITC, HLA-DR-PE, CD14-PerCP (BD Biosciences). Monocytes were gated based on their FSC/SSC properties. Fluorescence was detected using FACS Calibur, and data analysis was performed using FCS Express version 3 (De Novo Software).
In this example, an LPS-primed monocyte model was established and then used to evaluate the function of the compound of example 1. Specifically, monocytes isolated from healthy subjects according to procedures described in the “Materials and methods” section were incubated with LPS (100 ng/mL) for 72 hours, then respective levels of PD-L1 and HLA-DR were determined. Results are illustrated in FIG. 2.
The effects of the compounds of example 1 were tested in the LPS-primed monocyte model of example 3.1, in which various concentrations of ML-C19-A, ML-C19-B, ML-A1-B, and ML-A1-C were incubated with LPS-primed monocytes of example 3.1; results are illustrated in FIGS. 3 and 4.

[2] = tested on: HLA-DR; assay: HLA-DR level in LPS-primed monocyte model (flow cytometry); type: cell-based, human; conditions: LPS-primed monocytes; FIG. 3
Text: as §1, §2
In this example, an LPS-primed monocyte model was established and then used to evaluate the function of the compound of example 1. Specifically, monocytes isolated from healthy subjects according to procedures described in the “Materials and methods” section were incubated with LPS (100 ng/mL) for 72 hours, then respective levels of PD-L1 and HLA-DR were determined. Results are illustrated in FIG. 2. […]

[3] = tested on: PD-L1; assay: PD-L1 expression on IFN-γ stimulated B16F10 cells (flow cytometry); type: cell-based, murine; conditions: various concentrations, 1 day; FIG. 5
Procedure: as §1, with “IFN-γ stimulated-monocytes were incubated in the presence of either a DMSO vehicle control, ML-A1-B or ML-A1-C for 1 day. Treated cells were harvested and the PD-L1 molecules were analyzed using flow cytometry. Surface molecule expression is presented as the MFI relative to each day that the cells were treated with the DMSO vehicle control medium. Values are presented as the mean±SEM from 3 independent experiments. White” for “White”, “Murine B16F10 cell lines maintained in Dulbecco's modified Eagle's medium (DMEM), 10% heat-inactivated fetal calf serum, 2 mM L-glutamine, penicillin (100 U/ml), and streptomycin (100 μg/ml) at 37 C in a 5% CO2 humidified atmosphere.” left out

[4] = tested on: B16F10 lung metastases; assay: B16F10 lung metastasis model in C57BL/6 mice; type: in vivo; conditions: 2 mg/kg ip daily, day 14, n=11/group
Procedure: (§3) C57BL/6 (n=11/group) mice were injected i.v. with 2×10^5 of the B16F10 tumor cells. Two mg/kg of ML-A1-B, ML-A1-C, or with DMSO vehicle control were used. The animals were killed on day 14 and tumor nodules in the lungs were counted. Data are presented as the number of each individual mouse and the mean of each group. Representative photographs of the lung of each group are also shown (left).
(§4) C57BL/6 mice (6 to 8 weeks old) and NOD/SCID mice (6 to 8 weeks old) were purchased from the National Laboratory Animal Center (Taipei, Taiwan). All animal experiments were performed under specific pathogen-free conditions and in accordance with guidelines approved by the Animal Care and Usage Committee of Mackay memorial hospital (Taipei, Taiwan).
(§5) To generate lung metastases, mice were injected intravenously with 2×10^5 B16F10 cells, a dose consistently yielding lung metastases in 100% of animals. 2 mg/kg compounds and 5% DMSO vehicle control were given ip daily to test the effect of compounds on tumor metastatsis. The amount of tumor seeding was counted as total numbers of black nodules presented in the lungs under microscopy.
To examine the therapeutic effect of ML-A1-B and ML-A1-C against pre-established B16F10 lung metastases, mice were iv injected with 2×10^5 B16F10 tumor cells and treated with, per mouse, 2 mg/kg of ML-A1-B, ML-A1-C, or with DMSO vehicle control.

[5] = tested on: B16F10 lung metastases; assay: B16F10 lung metastasis model in NOD/SCID mice; type: in vivo; conditions: 2 mg/kg, day 14, n=5/group
Procedure: as §3, with “NOD/SCID (n=5/group)” for “C57BL/6 (n=11/group)”
as §4
as §5, with “microscopy. […]” for “microscopy.”

[6] = In vivo toxic study (body weight); conditions: 20 mg/kg ip daily; C57BL/6
Procedure: C57BL/6 mice were ip injected daily with 20 mg/kg of ML-A1-B, or ML-A1-C, or 5% DMSO vehicle control, and their body weight were measured on the indicated days.
To investigate toxicity of ML-A1-B and ML-A1-C, mice were injected ip daily with 20 mg/kg of ML-A1-B or ML-A1-C or 5% DMSO vehicle control.

[7] = tested on: murine B16F10 melanoma cells; assay: MTS cytotoxicity assay, B16F10; type: cell-based; conditions: Mus musculus, B16-F10, B16F10; FIG. 6; read-out: IC50 (MTS assay), B16F10 melanoma cell line
Procedure: (§6) The B16F10 and human PBMCs were incubated in the presence of various concentrations of ML-A1-B and ML-A1-C compounds for 1 day. The cell cytotoxicity was monitored through MTS assay. Optical density of DMSO control groups was taken as 100% of cell viability. Values are presented as the mean±SEM from 3 independent experiments.
(§7) 5×10^3 of B16F10 cells were seeded into 96-well plates and treated with the following: DMSO control, various concentrations of naphthalimide derived compounds for 2 day. For the MTS assay (Promega), 40 ul of the MTS reagent was added into each well. Cells were incubated at 37° C. for 4 hr. The absorbance was detected at OD490 nm.
(§8) The cytotoxicity of various concentrations of ML-A1-B and ML-A1-C against murine B16F10 melanoma cells and human PBMCs were examined by MTS assay. […] Therapeutic index by MTS assay is about 5.62.

[8] = tested on: human PBMCs; assay: MTS cytotoxicity assay, human PBMCs; type: cell-based
Procedure: as §6, §7, §8

[9] = tested on: B16F10 lung metastases; assay: Compounds and anti-PD-1 antibody combination therapy in B16F10 lung metastasis model (survival); type: in vivo, C57BL/6 mice; conditions: compound 2 mg/kg daily combined with anti-PD-1 (J43) 5 mg/kg every 3-4 days; C57BL/6
Procedure: C57BL/6 mice were injected iv with 2×10^5 B16F10 cells on Day0. On Day1, mice were injected ip with either control hamster Ig (CTRL IgG) or hamster anti-mouse-PD-1 (J43) at 5 mg/kg every 3-4 days. For combination therapies, mice were daily injected with 2 mg/kg of ML-C19-A or ML-A1-C combined with anti-mouse PD-1 (5 mg/kg) every 3-4 days. Long-term of survival of treated mice in each of the experimental groups were observed.
To examine whether combination of ML-C19-A or ML-A1-C with anti-PD-1 antibody would prolong mice survival in B16F10 lung metastasis model, mice were injected ip with compounds and anti-PD-1 antibody.

| Compound | expression level of PD-L1 in LPS-primed monocytes, of that of the control [1] | levels of HLA-DR expression [2] | PD-L1 on IFN-γ stimulated murine B16F10 melanoma cell line [3] | number of lung metastases (lung nodules), mean [4] | number of lung metastases (lung nodules), range [4] | lung metastasis in immune deficient NOD/SCID mice [5] | body weight of the mice [6] | visible sign of toxicity [6] | IC50 [7] [µM] | IC50 ([8]; Homo sapiens, PBMC, human PBMCs, FIG. 6) [µM] | Therapeutic index by MTS assay ([8]; ratio of PBMC IC50 to B16F10 IC50) | overall survival [9] | reduction in PD-L1 level as compared with that of the control ([1]; LPS-primed monocytes, FIG. 3) [%] |
| --- | --- | --- | --- | --- | --- | --- | --- | --- | --- | --- | --- | --- | --- |
| CN(C)CCN1C(=O)c2cccc3c(-c4nc5ccccc5o4)ccc(c23)C1=O [ML-A1-B, 6-(Benzo[d]oxazol-2-yl)-2-(2-(dimethylamino)ethyl)-1H-benzo[de]isoquinoline-1,3(2H)-dione] | ~9.4% | capable of altering the levels of HLA-DR expression | significantly suppresses PD-L1 | 41 | 2-90 | failed to inhibit lung metastasis | do not significantly reduce the body weight | no visible sign of toxicity |  |  |  |  |  |
| CN(C)CCN1C(=O)c2cccc3c(-c4nc5ccccc5s4)ccc(c23)C1=O [ML-A1-C, 6-(Benzo[d]thiazol-2-yl)-2-(2-(dimethylamino)ethyl)-1H-benzo[de]isoquinoline-1,3(2H)-dione] | ~50.8% | capable of altering the levels of HLA-DR expression | significantly suppresses PD-L1 | 30 | 3-59 | failed to inhibit lung metastasis | do not significantly reduce the body weight | no visible sign of toxicity | 7.8 ± 0.05 | 48.3 ± 0.14 | about 5.62 | an increase in overall survival |  |
| NS(=O)(=O)c1ccc(N2C(=O)c3cccc4cccc(c34)C2=O)cc1 [ML-C19-A] | about 37.5% |  |  |  |  |  |  |  |  |  |  | an increase in overall survival |  |
| NS(=O)(=O)c1ccc(N2C(=O)c3cccc4c(Br)ccc(c34)C2=O)cc1 [ML-C19-B, 4-(6-bromo-1,3-dioxo-1H-benzo[de]isoquinolin-2(3H)-yl)benzene-sulfonamide] |  | capable of altering the levels of HLA-DR expression |  |  |  |  |  |  |  |  |  |  | 20 |
